{
  "source": "patent US20090061470A1",
  "about": "“Use of Human Hepatocytes for Determining Liver Function and Liver Regeneration” (priority 2006, published 2009)",
  "key": {"[1]": {"tested_on": "cytochrome P450 1A2", "conditions": "Hep G2/C3A-cells; cited from earlier work"}, "[2]": {"tested_on": "Hep G2/C3A-cells", "conditions": "0.03 mM added to the medium; experimental stage", "description": "Synthesis Capacity, for Example Micro-Albumin and Other Protein Synthesis of the Hep G2/C3A Cells (13).\nThe HepG2/C3A-cells are seeded in 24 well cell culture plates in a concentration of 250,000 cells/well for three days and 0.5 ml plasma from test persons+0.25 ml medium is added. The cells are then rinsed once with medium and after that are incubated with fresh medium (1 ml) for three days. After that micro albumin is determined nephelometrically from 0.2 ml cell culture medium and duplicated (+medium control). Each test batch with plasma from test persons is also duplicated.\nConsequently the test period can also be shortened to 48 hours and the cells release measurable quantities of fibrinogen and transferrine (plasma proteins) that can be measured and duplicated in 200 μl cell culture medium."}},
  "data": [
    {"smiles": "Cc1ccc2cc3c(ccc4ccccc43)c3c2c1CC3", "note": "[methylcholanthrene, 3-methylcholanthren]", "values": [
      {"measurement": "activity of cytochrome P450 1A2 after induction, relative to the initial value", "setting": "[1]", "value": 40, "unit": "times the initial value"}
    ]},
    {"smiles": "NCCC[C@H](N)C(=O)O.O=C(O)CCC(=O)C(=O)O", "note": "[ornithine alpha-cetoglutarates]", "values": [
      {"measurement": "synthesis capacity of the Hep G2/C3A-cells", "setting": "[2]", "value": "increased"}
    ]}
  ]
}
